According to patent US20080213815A1, “DIAGNOSING BREAST CANCER BY SEPRASE LEVEL” (DUBLIN CITY UNIVERSITY, priority 2007, published 2008):
Like-named read-outs stand apart in the source and are kept apart here. Where a SMILES comes first, the peptide text is derived from it. The star is where a group is joined. AFC = O=c1cc(C(F)(F)F)c2ccc(N*)cc2o1

How the values were obtained:
[1] = target: T1, Seprase (Homo sapiens, UniProt Q12884); experiment: Seprase activity towards fluorogenic substrates; type: biochemical; conditions: compared with substrate Z-Gly-Pro-AMC
T1 sequence (Q12884 1-760): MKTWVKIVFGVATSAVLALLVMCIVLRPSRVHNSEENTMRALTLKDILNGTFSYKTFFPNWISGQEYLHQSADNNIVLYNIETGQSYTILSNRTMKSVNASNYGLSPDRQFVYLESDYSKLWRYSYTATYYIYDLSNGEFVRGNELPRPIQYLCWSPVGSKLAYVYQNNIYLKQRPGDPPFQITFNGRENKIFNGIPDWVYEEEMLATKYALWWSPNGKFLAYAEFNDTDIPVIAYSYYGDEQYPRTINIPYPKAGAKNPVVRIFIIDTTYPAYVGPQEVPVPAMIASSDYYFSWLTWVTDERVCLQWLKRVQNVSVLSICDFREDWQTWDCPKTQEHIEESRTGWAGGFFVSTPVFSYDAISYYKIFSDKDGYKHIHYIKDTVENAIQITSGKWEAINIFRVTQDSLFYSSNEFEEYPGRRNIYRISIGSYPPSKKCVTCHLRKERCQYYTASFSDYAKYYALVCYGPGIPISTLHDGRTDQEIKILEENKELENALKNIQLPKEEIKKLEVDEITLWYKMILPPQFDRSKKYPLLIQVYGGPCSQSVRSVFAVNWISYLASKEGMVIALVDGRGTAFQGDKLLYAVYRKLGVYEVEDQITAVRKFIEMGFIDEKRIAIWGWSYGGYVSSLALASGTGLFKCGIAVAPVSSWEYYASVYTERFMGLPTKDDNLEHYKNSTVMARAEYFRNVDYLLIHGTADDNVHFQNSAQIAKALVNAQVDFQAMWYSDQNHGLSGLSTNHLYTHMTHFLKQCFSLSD
Excerpt: The substrate used for the test is Benzyloxycarbonyl (Z)-Gly-Pro-7-amino-4-methylcoumarin (AMC) [Z-Gly-Pro-AMC]. […] This substrate is for a completely different enzyme, namely DPPII.

[2] = target: T2, Prolyl Oligopeptidase (Homo sapiens, UniProt P48147)
T2 sequence (P48147 1-710): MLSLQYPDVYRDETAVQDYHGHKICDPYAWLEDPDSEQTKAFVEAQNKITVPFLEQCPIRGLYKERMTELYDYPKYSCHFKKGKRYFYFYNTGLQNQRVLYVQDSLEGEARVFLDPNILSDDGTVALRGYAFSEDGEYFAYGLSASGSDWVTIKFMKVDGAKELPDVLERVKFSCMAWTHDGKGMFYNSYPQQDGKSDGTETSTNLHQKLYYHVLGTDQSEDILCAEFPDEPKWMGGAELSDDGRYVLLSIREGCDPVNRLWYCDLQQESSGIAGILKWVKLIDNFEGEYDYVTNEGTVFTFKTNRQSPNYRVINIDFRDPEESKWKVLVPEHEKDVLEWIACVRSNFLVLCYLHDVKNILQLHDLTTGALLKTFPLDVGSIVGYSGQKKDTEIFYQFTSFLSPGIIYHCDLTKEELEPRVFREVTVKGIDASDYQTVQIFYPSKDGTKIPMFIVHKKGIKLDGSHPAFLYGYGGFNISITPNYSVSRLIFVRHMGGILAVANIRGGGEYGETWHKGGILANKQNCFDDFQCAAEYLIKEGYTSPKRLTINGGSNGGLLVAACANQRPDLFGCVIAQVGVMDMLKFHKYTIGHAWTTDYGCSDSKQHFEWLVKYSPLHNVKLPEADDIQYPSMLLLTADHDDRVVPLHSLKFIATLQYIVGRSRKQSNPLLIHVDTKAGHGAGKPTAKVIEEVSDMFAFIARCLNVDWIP

[3] = target: T3, PO (Prolyl Oligopeptidase) (Homo sapiens, UniProt P48147); experiment: Fluorimetric Z-Gly-Pro-AMC assay in serum with PO inhibitor; type: biochemical; conditions: JTP-4819 at a concentration of 4×10^−6M in the assay; 100 μM Z-Gly-Pro-AMC, 37° C.
T3 construct: from tissue; host or cells: serum
T3 sequence (P48147 1-710): T2 sequence (P48147 1-710)
Description: A 25 μl aliquot of serum was pre-incubated for 15 minutes at 37° C. with 5 μl of 2.5×10^−4M JTP-4819 in 10% v/v MeOH in a 96 well microtitre plate prior to substrate addition. Next, 100 μl of 100μM Z-Gly-Pro-AMC substrate in 4% MeOH was added to the sample and the microtitre plate was incubated at 37° C. for 60 mins. Reactions were terminated by the addition of 170 μl of 1.5M acetic acid. Blanks or negative controls were prepared by adding 170 μl of 1.5M acetic acid to 25 μl of enzyme sample prior to substrate addition and incubation at 37° C. for 60 mins. The assay is performed in triplicate and at three different times. […] This concentration is obtained by adding 5 μl of 2.5×10^−4 M JTP-4819 to the assay.
Fluorimetric analysis of these samples was achieved using a Perkin Elmer LS50 Fluorescence Spectrophotometer at excitation and emission wavelengths of 370 nm and 440 nm respectively. Excitation slit widths were maintained at 10 nm while emission slit widths were adjusted accordingly for the range being analysed.
End point measurements were allowed, as the enzyme assay was linear with respect to time and enzyme concentration up to 60 mins. Fluorimetric intensities observed were converted to nanomoles AMC released per minute per ml using the appropriate standard curve. Enzyme units were defined as nanomoles of AMC released per minute at 37° C.

[4] = Prolyl Oligopeptidase specific inhibitors, Table 5, Bacterial Inhibitor; cited from earlier work
[5] = Prolyl Oligopeptidase specific inhibitors, Table 5; read-out: Potency Ki; cited from earlier work
[6] = Prolyl Oligopeptidase specific inhibitors, Table 5; read-out: Potency IC50; cited from earlier work

For `C[C@H](N)C(=O)N1CCC[C@H]1C(=O)Nc1ccc2c(C(F)(F)F)cc(=O)oc2c1` [Ala-Pro-7-amino-4-trifluoromethylcoumarin] (H-Ala-Pro-{AFC}), the “Seprase activity towards substrate” value [1] was “markedly less activity”.
For `CC(C)CC/C=C/C(=O)NC1CCCNC(=O)C(CC(C)C)NC(=O)C(=O)C(C)NC1=O` (stereo not drawn) [Eurystatin A], the “Potency IC50” value [2, 4] is listed as “IC50 = 0.004 μg/mL”.
For `CCC(C)CC/C=C/C(=O)NC1CCCNC(=O)C(CC(C)C)NC(=O)C(=O)C(C)NC1=O` (stereo not drawn) [Eurystatin B], the “Potency IC50” value [2, 4] is given as “IC50 = 0.002 μg/mL”.
For `CC(NC(=O)OCC1c2ccccc2-c2ccccc21)C(=O)N1CCCC1C#N` (stereo not drawn) [Fmoc-Ala-Pro-CN], the Ki [2, 5] is listed as 5 nM.
In the case of `N#CC1CCCN1C(=O)C1CCCN1C(=O)OCC1c2ccccc2-c2ccccc21` (stereo not drawn) [Fmoc-Pro-Pro-CN], the Ki [2, 5] is given as 5 nM.
For `O=C(CO)[C@@H]1CCCN1C(=O)[C@@H]1CCCN1C(=O)NCc1ccccc1` [JTP-4819], the IC50 [2, 6] is listed as 0.83 nM, the Ki [2, 5] is listed as 0.045 nM and the “PO sensitivity to inhibitor” value [3] is listed as “sensitive”.
For `O=C[C@@H]1CCCN1C(=O)CCC(=O)NCc1ccc(Cl)cc1` [ONO-1603], the IC50 [2, 6] is given as 57 nM.
In the case of `COc1cccc2c1C(=O)c1ccc3c(c1C2=O)C(=O)C[C@@H](C)[C@H]3O` [SNA-8073-B], the Ki [2, 5] is given as 8000 nM.
For `CN[C@@H]1C[C@H]2O[C@@](C)([C@@H]1OC)n1c3ccccc3c3c4c(c5c6ccccc6n2c5c31)C(=O)NC4` [Staurosporine], the Ki ([2]; read-out: Potency Ki; Prolyl Oligopeptidase specific inhibitors, Table 5; cited from earlier work) is listed as 700 nM.
In the case of `O=CC1CCCN1C(=O)C1Cc2ccccc2N1C(=O)OCc1ccccc1` (stereo not drawn) [Z-Indolinyl-Prolinal], the Ki [2, 5] is given as 2.4 nM.
For `O=C(C1CCCN1C(=O)OCc1ccccc1)N1CCC(F)C1` (stereo not drawn) [Z-Pro-3-fluoropyrrolidine], the Ki [2, 5] is listed as 0.8 nM.
For Postatin, the “Potency IC50” value [2, 4] is given as “IC50 = 0.03 μg/mL”.
In the case of Propeptin, the Ki [2, 5] is listed as 700 nM.
